According to ChEMBL document CHEMBL6083203, “Discovery and optimisation of pyrazolo[1,5-a]pyrimidines as aryl hydrocarbon receptor antagonists” (RSC Med Chem, 2024):

target: T1, Aryl hydrocarbon receptor (Mus musculus, UniProt P30561); assay: Antagonist activity at AhR receptor in TCDD-stimulated mouse CD34-positive cell assessed as decrease in CYP1B1 mRNA expression; settings: not given
T1 sequence (P30561 whole entry): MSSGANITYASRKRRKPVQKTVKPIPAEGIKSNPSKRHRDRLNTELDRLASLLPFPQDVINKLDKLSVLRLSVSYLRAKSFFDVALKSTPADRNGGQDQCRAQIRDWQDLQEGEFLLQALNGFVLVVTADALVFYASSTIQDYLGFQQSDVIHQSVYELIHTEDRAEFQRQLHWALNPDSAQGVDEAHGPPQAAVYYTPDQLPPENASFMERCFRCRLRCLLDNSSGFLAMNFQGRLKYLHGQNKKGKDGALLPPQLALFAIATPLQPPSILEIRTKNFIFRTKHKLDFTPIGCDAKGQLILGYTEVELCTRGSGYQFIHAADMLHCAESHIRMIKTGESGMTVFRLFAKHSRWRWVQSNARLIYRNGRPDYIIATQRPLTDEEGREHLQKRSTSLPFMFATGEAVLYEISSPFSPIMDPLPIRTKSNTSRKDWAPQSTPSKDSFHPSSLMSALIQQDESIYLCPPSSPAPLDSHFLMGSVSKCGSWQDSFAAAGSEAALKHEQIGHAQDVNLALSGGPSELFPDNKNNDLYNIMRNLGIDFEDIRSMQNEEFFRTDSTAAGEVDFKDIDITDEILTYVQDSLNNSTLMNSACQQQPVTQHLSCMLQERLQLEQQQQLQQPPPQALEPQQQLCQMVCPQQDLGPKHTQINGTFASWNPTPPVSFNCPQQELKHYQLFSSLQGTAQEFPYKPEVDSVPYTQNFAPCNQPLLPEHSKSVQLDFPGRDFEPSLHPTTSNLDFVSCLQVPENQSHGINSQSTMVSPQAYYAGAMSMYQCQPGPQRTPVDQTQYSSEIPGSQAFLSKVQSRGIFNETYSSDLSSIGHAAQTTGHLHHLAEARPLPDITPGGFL

Row | IC50 [nM] | SMILES
1 | 127 | CC(C)n1cnc2c(NCCc3ccc(O)cc3)nc(-c3csc4ccccc34)nc21

target: T2, Aryl hydrocarbon receptor (Homo sapiens, UniProt P35869); settings: Huh-7, human, 20 h, read-out: Activity
T2 sequence (P35869 whole entry): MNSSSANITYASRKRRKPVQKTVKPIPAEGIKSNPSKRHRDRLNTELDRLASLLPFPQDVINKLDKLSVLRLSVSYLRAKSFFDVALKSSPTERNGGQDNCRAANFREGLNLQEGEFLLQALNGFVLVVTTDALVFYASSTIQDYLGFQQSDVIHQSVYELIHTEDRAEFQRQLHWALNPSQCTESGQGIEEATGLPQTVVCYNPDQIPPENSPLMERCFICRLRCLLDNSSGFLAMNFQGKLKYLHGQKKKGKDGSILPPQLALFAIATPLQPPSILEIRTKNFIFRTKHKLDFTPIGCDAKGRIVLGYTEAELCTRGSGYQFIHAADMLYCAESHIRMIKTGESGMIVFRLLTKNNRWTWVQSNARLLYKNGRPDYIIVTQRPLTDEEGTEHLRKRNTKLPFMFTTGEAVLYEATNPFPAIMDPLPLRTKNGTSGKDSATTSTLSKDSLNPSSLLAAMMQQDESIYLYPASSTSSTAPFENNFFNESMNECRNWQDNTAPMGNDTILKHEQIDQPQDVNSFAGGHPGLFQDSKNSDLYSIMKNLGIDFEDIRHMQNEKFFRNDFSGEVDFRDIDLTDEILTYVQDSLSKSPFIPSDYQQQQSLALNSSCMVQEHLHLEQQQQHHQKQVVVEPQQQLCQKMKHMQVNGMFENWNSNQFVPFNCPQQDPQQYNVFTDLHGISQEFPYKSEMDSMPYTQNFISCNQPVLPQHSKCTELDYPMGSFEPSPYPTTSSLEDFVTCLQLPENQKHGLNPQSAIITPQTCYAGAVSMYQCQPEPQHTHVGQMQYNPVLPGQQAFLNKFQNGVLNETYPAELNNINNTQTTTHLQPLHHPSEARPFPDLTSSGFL
Description: Antagonist activity at AHR receptor in human Huh-7 cells transfected with CYP1A1 regulated luciferase reporter gene assessed as inhibition of TCDD-induced receptor activation at 25 uM incubated for 20 hrs by dual luciferase assay relative to control

Row | inhibition at 25 µM [%] | SMILES
2 | 23.6 | NC(=O)C1CN(C(=O)c2cc(-c3ccc(Cl)cc3)nn2-c2ccccc2)c2ccccc2O1 (configuration not stated)
3 | 21 | C=CCn1c(SC(C)C(=O)NC(N)=O)nnc1-c1cc2c(s1)CCC(C(C)(C)C)C2 (configuration not stated)

target: T2, Aryl hydrocarbon receptor; settings: Huh-7, human, 20 h, read-out: Activity; remark: another data set of the same source
Description: Antagonist activity at AHR receptor in human Huh-7 cells transfected with CYP1A1 regulated luciferase reporter gene assessed as inhibition of receptor activation at 25 uM incubated for 20 hrs by dual luciferase assay relative to control

Row | inhibition at 25 µM [%] | SMILES
4 | 28 | NC(=O)C1CN(C(=O)c2cc(-c3ccc(Cl)cc3)nn2-c2ccccc2)c2ccccc2O1 (configuration not stated)
5 | 1.4 | C=CCn1c(SC(C)C(=O)NC(N)=O)nnc1-c1cc2c(s1)CCC(C(C)(C)C)C2 (configuration not stated)

target: T2, Aryl hydrocarbon receptor; settings: not given

Row | IC50 [nM] | SMILES
6 | 320 | COc1ccccc1-c1cnn2c(NCCOCCO)cc(-c3ccccc3)nc12
7 | 396 | OCCOCCNc1cc(-c2ccccc2)nc2c(-c3ccccc3OC(F)(F)F)cnn12
8 | 359 | COC(=O)c1ccccc1-c1cnn2c(NCCOCCO)cc(-c3ccccc3)nc12

More lines, now with the values behind:

Row | SMILES | IC50 [nM]
9 | c1ccc(-c2cc(Nc3cnc[nH]3)n3ncc(-c4ccccc4)c3n2)cc1 | 121
10 | CC(C)(C)c1cccc(-c2cnn3c(NCCOCCO)cc(-c4ccccc4)nc23)c1 | 29500
11 | Cc1ccc(-c2cc(NCCOCCO)n3ncc(-c4ccccc4)c3n2)cc1 | 189
12 | CS(=O)(=O)Nc1ccccc1-c1cnn2c(NCCOCCO)cc(-c3ccccc3)nc12 | 654
